Measured values as given in ChEMBL document CHEMBL2401650, “Selective inhibition of human acetylcholinesterase by xanthine derivatives: in vitro inhibition and molecular modeling investigations” (Bioorg Med Chem Lett, 2013).

How the values were obtained:
Acetylcholinesterase = Acetylcholinesterase (Homo sapiens, UniProt P22303); test: Inhibition of human AChE using acetylthiocholine iodide as substrate treated 5 mins before substrate addition measured up to 4 mins by Ellman's method
Cholinesterase = Cholinesterase (Homo sapiens, UniProt P06276)
Sequence of Cholinesterase (P06276 whole entry): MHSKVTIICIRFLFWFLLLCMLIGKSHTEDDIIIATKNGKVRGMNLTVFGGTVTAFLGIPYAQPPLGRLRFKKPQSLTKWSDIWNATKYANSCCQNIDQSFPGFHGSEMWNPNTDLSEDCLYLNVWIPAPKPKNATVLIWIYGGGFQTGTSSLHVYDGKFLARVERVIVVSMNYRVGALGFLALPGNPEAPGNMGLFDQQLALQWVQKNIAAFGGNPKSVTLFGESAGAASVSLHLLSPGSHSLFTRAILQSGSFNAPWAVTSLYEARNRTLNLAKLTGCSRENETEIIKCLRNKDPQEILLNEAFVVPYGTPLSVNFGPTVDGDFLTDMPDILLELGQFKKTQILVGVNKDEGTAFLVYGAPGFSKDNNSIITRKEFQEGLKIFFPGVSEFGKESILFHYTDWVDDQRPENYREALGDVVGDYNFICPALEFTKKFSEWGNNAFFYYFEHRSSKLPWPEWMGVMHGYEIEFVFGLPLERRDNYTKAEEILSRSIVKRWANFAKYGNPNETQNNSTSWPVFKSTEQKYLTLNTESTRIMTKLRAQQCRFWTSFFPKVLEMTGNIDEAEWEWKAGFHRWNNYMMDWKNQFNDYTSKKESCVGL
Description: Inhibition of human BuChE using S-butyrylthiocholine iodide as substrate treated 5 mins before substrate addition measured up to 4 mins by Ellman's method

Sequence of Acetylcholinesterase (P22303 whole entry): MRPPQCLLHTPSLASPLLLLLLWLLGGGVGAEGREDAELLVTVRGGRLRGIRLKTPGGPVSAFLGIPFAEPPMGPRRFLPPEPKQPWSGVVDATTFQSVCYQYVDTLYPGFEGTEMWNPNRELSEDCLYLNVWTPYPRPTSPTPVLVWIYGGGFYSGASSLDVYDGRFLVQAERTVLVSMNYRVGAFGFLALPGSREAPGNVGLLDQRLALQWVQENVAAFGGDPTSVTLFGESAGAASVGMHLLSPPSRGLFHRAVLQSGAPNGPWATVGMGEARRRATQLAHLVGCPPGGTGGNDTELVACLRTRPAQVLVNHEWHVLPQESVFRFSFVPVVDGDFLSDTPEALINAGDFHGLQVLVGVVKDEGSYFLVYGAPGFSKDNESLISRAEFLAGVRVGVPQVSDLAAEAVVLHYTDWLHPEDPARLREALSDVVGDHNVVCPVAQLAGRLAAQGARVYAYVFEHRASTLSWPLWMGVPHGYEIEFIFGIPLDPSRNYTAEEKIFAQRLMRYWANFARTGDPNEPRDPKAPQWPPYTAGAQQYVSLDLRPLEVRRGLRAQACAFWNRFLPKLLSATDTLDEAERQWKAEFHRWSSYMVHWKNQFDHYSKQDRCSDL

| Structure (SMILES) | IC50 (Acetylcholinesterase) [µM] | IC50 (Cholinesterase) [µM] |
| --- | --- | --- |
| CC(=O)CCCCn1c(=O)c2c(ncn2C)n(C)c1=O [PENTOXIFYLLINE] | 6.6 | > 50 |
| CCCn1cnc2c1c(=O)n(CCCCC(C)=O)c(=O)n2C [PROPENTOFYLLINE] | 6.4 | > 50 |
| O=c1[nH]c(=O)c2[nH]cnc2[nH]1 [XANTHINE] | 9 | > 50 |
